Data: patent US12447153B2, “HER2 mutation inhibitors” (Array BioPharma Inc., priority 2021, dated 2025)
pIC50: −log10 of the molar value.

Experiments:
[1] = target: ErbB2 WT (Homo sapiens (Human), UniProt P04626); experiment: ErbB Enzyme Assay (HTRF KinEASE-TK), Assay 2; type: biochemical
[2] = target: EGFR (Homo sapiens (Human), UniProt P00533); experiment: ErbB Enzyme Assay (HTRF KinEASE-TK), Assay 3; type: biochemical
[3] = target: ErbB2 with Exon 20 YVMA insertion (HER2-YVMA) (Homo sapiens (Human), UniProt P04626, INS775YVMA); experiment: Cellular Phosphorylation Assay, Assay 4 (constitutive ErbB2 phosphorylation, NIH 3T3 cells); type: cell-based
Sequence of ErbB2 with Exon 20 YVMA insertion (HER2-YVMA) (P04626 other isoform, or with tags, fused parts or gaps ins YVMA behind 775): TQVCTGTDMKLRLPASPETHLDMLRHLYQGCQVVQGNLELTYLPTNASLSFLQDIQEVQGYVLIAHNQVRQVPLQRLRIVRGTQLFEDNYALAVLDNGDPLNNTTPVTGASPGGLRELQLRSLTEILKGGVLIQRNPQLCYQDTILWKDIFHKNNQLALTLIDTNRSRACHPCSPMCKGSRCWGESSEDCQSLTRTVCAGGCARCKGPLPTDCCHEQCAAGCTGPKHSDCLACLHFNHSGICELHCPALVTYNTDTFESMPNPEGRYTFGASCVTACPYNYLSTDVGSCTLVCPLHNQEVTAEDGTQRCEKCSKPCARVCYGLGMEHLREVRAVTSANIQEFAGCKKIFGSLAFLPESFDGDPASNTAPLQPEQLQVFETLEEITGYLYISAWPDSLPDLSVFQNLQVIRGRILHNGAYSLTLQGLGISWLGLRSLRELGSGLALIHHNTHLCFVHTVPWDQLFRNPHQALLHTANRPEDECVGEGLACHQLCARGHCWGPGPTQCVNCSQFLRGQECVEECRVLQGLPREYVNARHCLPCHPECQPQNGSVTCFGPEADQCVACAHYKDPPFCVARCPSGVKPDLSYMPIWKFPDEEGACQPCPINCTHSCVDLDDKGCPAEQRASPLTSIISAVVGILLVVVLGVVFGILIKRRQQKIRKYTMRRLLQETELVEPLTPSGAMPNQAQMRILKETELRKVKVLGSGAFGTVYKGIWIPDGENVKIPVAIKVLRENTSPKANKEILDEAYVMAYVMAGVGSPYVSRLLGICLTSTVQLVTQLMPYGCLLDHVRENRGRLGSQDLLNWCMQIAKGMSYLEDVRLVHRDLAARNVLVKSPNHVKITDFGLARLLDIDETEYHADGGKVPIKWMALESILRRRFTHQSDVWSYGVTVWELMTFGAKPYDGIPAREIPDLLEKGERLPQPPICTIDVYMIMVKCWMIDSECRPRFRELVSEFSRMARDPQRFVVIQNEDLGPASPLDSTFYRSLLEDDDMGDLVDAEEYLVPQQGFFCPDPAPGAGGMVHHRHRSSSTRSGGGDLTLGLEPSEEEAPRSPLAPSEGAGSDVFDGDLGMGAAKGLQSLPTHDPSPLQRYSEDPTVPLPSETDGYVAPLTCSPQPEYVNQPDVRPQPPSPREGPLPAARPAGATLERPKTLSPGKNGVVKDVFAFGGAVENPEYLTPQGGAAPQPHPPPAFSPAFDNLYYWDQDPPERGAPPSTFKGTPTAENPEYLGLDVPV

[4] = target: EGFR wild type (EGFR WT) (Homo sapiens (Human), UniProt P00533); experiment: Cellular Phosphorylation Assay, Assay 5 (EGF-stimulated EGFR phosphorylation, NIH 3T3 cells); type: cell-based
Sequence of EGFR wild type (EGFR WT) (P00533 25-1210): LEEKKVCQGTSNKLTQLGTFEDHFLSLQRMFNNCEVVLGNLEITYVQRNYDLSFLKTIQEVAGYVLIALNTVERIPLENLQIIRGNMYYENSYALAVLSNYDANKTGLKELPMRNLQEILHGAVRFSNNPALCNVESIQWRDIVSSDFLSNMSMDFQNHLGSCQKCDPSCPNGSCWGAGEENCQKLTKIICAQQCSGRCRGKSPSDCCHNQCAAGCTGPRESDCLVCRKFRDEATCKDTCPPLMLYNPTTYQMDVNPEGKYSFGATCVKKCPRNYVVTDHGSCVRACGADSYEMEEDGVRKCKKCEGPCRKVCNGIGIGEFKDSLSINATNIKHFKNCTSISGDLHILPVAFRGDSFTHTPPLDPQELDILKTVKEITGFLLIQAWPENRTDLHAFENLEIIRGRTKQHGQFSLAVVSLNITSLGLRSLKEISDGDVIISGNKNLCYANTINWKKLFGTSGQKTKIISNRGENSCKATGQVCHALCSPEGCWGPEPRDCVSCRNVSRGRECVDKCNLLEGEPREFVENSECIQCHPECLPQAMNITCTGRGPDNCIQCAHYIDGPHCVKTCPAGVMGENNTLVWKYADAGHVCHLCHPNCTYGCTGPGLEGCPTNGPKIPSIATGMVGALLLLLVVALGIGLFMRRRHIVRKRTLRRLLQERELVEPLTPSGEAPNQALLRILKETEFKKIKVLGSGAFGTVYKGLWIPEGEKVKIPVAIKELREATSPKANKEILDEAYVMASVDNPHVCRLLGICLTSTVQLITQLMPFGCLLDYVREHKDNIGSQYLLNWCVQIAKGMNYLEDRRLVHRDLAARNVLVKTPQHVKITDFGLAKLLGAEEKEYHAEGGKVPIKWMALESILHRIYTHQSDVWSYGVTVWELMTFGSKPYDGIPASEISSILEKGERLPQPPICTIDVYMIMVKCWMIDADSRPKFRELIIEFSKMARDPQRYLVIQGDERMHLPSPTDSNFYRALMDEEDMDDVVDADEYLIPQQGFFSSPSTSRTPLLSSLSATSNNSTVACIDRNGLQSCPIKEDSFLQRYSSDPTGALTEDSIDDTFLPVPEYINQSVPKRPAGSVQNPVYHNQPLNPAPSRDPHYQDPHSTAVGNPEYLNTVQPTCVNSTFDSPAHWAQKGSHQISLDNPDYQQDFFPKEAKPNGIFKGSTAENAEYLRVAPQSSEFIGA

[5] = target: BCRP (Homo sapiens (Human), UniProt Q9UNQ0); experiment: BCRP MDCKII efflux assay (Assay 7); type: in vitro ADME; settings: dog; efflux ratio Papp(B-A)/Papp(A-B), BCRP MDCKII cells; read-out: Assay 7 Pe Ratio
Description: Assay conditions included with and without the BCRP-specific inhibitor, KO143, at a concentration of 0.3 μM to ascertain the contribution of BCRP to the efflux value of the test compound.
Final organic concentration in the assay was 1%.

[6] = EGF-stimulated EGFR WT phosphorylation
[7] = cellular ErbB2 YVMA phosphorylation
[8] = cellular EGFR WT phosphorylation, EGF-stimulated

Sequence of EGFR (P00533 25-1210): as above
Sequence of ErbB2 WT (P04626 23-1255): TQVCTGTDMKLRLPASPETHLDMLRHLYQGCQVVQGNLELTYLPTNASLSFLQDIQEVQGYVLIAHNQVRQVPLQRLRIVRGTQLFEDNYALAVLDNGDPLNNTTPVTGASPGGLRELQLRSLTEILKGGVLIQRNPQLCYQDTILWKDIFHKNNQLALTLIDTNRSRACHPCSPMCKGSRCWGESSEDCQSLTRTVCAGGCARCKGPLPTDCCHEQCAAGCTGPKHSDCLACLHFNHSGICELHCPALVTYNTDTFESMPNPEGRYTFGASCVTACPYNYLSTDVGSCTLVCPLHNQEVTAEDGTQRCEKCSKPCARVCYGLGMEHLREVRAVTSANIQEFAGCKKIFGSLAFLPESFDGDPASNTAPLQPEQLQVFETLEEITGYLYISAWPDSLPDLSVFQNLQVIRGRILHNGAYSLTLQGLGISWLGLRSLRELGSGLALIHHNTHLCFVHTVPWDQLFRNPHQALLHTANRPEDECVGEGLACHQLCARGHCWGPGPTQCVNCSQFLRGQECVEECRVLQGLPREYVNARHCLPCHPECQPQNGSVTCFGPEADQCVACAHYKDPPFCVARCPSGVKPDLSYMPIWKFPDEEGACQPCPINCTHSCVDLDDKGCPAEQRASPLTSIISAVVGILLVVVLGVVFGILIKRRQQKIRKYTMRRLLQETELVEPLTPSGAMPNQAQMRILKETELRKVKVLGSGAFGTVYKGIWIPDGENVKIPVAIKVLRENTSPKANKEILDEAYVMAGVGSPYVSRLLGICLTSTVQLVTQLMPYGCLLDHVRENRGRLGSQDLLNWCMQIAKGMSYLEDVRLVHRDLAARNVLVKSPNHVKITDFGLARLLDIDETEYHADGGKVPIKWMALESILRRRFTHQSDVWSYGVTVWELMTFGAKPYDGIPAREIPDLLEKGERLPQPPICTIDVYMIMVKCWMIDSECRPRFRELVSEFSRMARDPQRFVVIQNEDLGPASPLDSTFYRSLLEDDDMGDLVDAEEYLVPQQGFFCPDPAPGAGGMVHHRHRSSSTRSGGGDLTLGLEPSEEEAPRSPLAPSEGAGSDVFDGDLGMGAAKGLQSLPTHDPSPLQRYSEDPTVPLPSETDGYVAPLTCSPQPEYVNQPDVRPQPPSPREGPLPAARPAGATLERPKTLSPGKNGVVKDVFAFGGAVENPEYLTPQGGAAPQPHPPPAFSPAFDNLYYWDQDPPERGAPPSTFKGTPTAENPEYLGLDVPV

C=CC(=O)N1CCCC[C@@H](c2ccc3ncnc(Nc4cc(C)c(Oc5ccc6c(c5)ncn6C)cc4F)c3n2)C1 (racemic) [Example 137, rac-(R)-1-(3-(4-((2-fluoro-5-methyl-4-((1-methyl-1H-benzo[d]imidazol-5-yl)oxy)phenyl)amino)pyrido[3,2-d]pyrimidin-6-yl)azepan-1-yl)prop-2-en-1-one]
pIC50 ([1]; ErbB2 WT enzyme): 7.55 | pIC50 ([2]; EGFR enzyme): 5.58 | pIC50 ([3]; ErbB2 YVMA phosphorylation): 7.77 | pIC50 [4, 6]: 5.36 | efflux ratio at 2 h, 1 µM [5]: 1.9

C=CC(=O)N1CCCN(c2ccc3ncnc(Nc4ccc(Oc5cnc6c(c5)ncn6C)c(C)c4)c3n2)CC1 [Example 114, 1-(4-(4-((3-methyl-4-((3-methyl-3H-imidazo[4,5-b]pyridin-6-yl)oxy)phenyl)amino)pyrido[3,2-d]pyrimidin-6-yl)-1,4-diazepan-1-yl)prop-2-en-1-one]
pIC50 ([1]; ErbB2 WT enzyme): 6.59 | pIC50 ([2]; EGFR enzyme): ≤ 5.00 | pIC50 ([3]; ErbB2 YVMA phosphorylation): 7.52 | pIC50 [4, 6]: ≤ 5.30 | efflux ratio at 2 h, 1 µM [5]: 23.5

C=CC(=O)N1CCC(c2ccc3ncnc(Nc4ccc(Oc5cnc6c(c5)ncn6C)c(Cl)c4)c3n2)CC1 [Example 271]
pIC50 ([1]; ErbB2 WT enzyme assay): 7.28 | pIC50 ([2]; EGFR enzyme assay): 5.46 | pIC50 [3, 7]: 7.50 | pIC50 [4, 8]: ≤ 5.30 | efflux ratio at 2 h, 1 µM [5]: 37

C=CC(=O)N1C[C@H]2C[C@@H]1CN(c1ccc3ncnc(Nc4cc(C)c(Oc5cnc6c(c5)ncn6C)cc4F)c3n1)C2 [Example 353]
pIC50 ([1]; ErbB2 WT enzyme assay): 6.32 | pIC50 ([2]; EGFR enzyme assay): ≤ 5.00 | pIC50 [3, 7]: 7.31 | pIC50 [4, 8]: ≤ 5.30 | efflux ratio at 2 h, 1 µM [5]: 17.2

C=CC(=O)N1CCN(c2nc3c(Nc4ccc(Oc5ccn6ncnc6c5)c(C)c4F)ncnc3cc2OC)CC1 [Example 152, 1-(4-(4-((4-([1,2,4]triazolo[1,5-a]pyridin-7-yloxy)-2-fluoro-3-methylphenyl)amino)-7-methoxypyrido[3,2-d]pyrimidin-6-yl)piperazin-1-yl)prop-2-en-1-one]
pIC50 ([1]; ErbB2 WT enzyme): 7.43 | pIC50 ([2]; EGFR enzyme): 5.98 | pIC50 ([3]; ErbB2 YVMA phosphorylation): 7.68 | pIC50 [4, 6]: 6.21 | efflux ratio at 2 h, 1 µM [5]: 17.5

C=CC(=O)N1C[C@H]2C[C@@H]1CN(c1ccc3ncnc(Nc4ccc(Oc5ccn6ncnc6c5)c(Cl)c4F)c3n1)C2 [Example 304]
pIC50 ([1]; ErbB2 WT enzyme assay): 7.77 | pIC50 ([2]; EGFR enzyme assay): 6.12 | pIC50 [3, 7]: 7.94 | pIC50 [4, 8]: 5.78 | efflux ratio at 2 h, 1 µM [5]: 13.8

C=CC(=O)N1CCN(c2ccc3ncnc(Nc4ccc(Oc5ccc6c(c5)ncn6C)c(C)c4)c3n2)CC1 [Example 105, 1-(4-(4-((3-methyl-4-((1-methyl-1H-benzo[d]imidazol-5-yl)oxy)phenyl)amino)pyrido[3,2-d]pyrimidin-6-yl)piperazin-1-yl)prop-2-en-1-one]
pIC50 ([1]; ErbB2 WT enzyme): 7.92 | pIC50 ([2]; EGFR enzyme): 6.17 | pIC50 ([3]; ErbB2 YVMA phosphorylation): 8.30 | pIC50 [4, 6]: 5.87 | efflux ratio at 2 h, 1 µM [5]: 31.6

C=CC(=O)N1CCC(Sc2nc3c(Nc4ccc(Oc5ccc6c(c5)ncn6C)c(C)c4)ncnc3cc2OC)CC1 [Example 159, 1-(4-((7-methoxy-4-((3-methyl-4-((1-methyl-1H-benzo[d]imidazol-5-yl)oxy)phenyl)amino)pyrido[3,2-d]pyrimidin-6-yl)thio)piperidin-1-yl)prop-2-en-1-one]
pIC50 ([1]; ErbB2 WT enzyme): 7.69 | pIC50 ([2]; EGFR enzyme): 6.34 | pIC50 ([3]; ErbB2 YVMA phosphorylation): 7.92 | pIC50 [4, 6]: 6.31 | efflux ratio at 2 h, 1 µM [5]: 15

C=CC(=O)N1C2CC1CN(c1ccc3ncnc(Nc4cc(C)c(Oc5cnc6c(c5)ncn6C)cc4F)c3n1)C2 [Example 446]
pIC50 ([1]; ErbB2 WT enzyme assay): 5.59 | pIC50 ([2]; EGFR enzyme assay): ≤ 5.00 | pIC50 [3, 7]: 7.55 | pIC50 [4, 8]: ≤ 5.30 | efflux ratio at 2 h, 1 µM [5]: 19.4

C=CC(=O)N1CCN(c2ccc3ncnc(Nc4ccc(Oc5cnc6c(c5)ncn6C)c(C)c4F)c3n2)C[C@@H]1C [Example 437]
pIC50 ([1]; ErbB2 WT enzyme assay): 6.83 | pIC50 ([2]; EGFR enzyme assay): 5.01 | pIC50 [3, 7]: 7.73 | pIC50 [4, 8]: 5.31 | efflux ratio at 2 h, 1 µM [5]: 9.3

C=CC(=O)N1CC[C@@H](c2ccc3ncnc(Nc4cc(C)c(Oc5ccc6c(c5)ncn6C)cc4F)c3n2)C1 (racemic) [Example 132, rac-(R)-1-(3-(4-((2-fluoro-5-methyl-4-((1-methyl-1H-benzo[d]imidazol-5-yl)oxy)phenyl)amino)pyrido[3,2-d]pyrimidin-6-yl)pyrrolidin-1-yl)prop-2-en-1-one]
pIC50 ([1]; ErbB2 WT enzyme): 7.12 | pIC50 ([2]; EGFR enzyme): ≤ 5.00 | pIC50 ([3]; ErbB2 YVMA phosphorylation): 7.73 | pIC50 [4, 6]: ≤ 5.30 | efflux ratio at 2 h, 1 µM [5]: 7.9

C=CC(=O)N1CC(c2ccc3ncnc(Nc4cc(C)c(Oc5ccc6c(c5)ncn6C)cc4F)c3n2)CCC12CC2 (centres unmarked) [Example 196, 1-(6-(4-((2-fluoro-5-methyl-4-((1-methyl-1H-benzo[d]imidazol-5-yl)oxy)phenyl)amino)pyrido[3,2-d]pyrimidin-6-yl)-4-azaspiro[2.5]octan-4-yl)prop-2-en-1-one]
pIC50 ([1]; ErbB2 WT enzyme): 7.37 | pIC50 ([2]; EGFR enzyme): 5.94 | pIC50 ([3]; ErbB2 YVMA phosphorylation): 7.47 | pIC50 [4, 6]: 5.70 | efflux ratio at 2 h, 1 µM [5]: 2.5

C=CC(=O)N1CCN(c2ccc3ncnc(Nc4ccc(Oc5cnc6c(c5)ncn6C)c(Cl)c4)c3n2)CC1 [Example 33, 1-(4-(4-((3-chloro-4-((3-methyl-3H-imidazo[4,5-b]pyridin-6-yl)oxy)phenyl)amino)pyrido[3,2-d]pyrimidin-6-yl)piperazin-1-yl)prop-2-en-1-one]
pIC50 ([1]; ErbB2 WT enzyme): 7.80 | pIC50 ([2]; EGFR enzyme): 5.94 | pIC50 ([3]; ErbB2 YVMA phosphorylation): 8.42 | pIC50 [4, 6]: 6.06 | efflux ratio at 2 h, 1 µM [5]: 42.7
